Experimental data taken from patent US12209102B2, “Heterocyclic compounds and uses thereof” (Kumquat Biosciences Inc., priority 2022, dated 2025).

Tests used:
Type in all cases: biochemical
K-Ras G12D = target: T1, K-Ras G12D (Homo sapiens, UniProt P01116, G12D); assay: HTRF resonance energy transfer assay, K-Ras G12D / SOS1 interaction; conditions: HTRF assay of Example 5; read-out: IC50 against K-Ras G12D
T1 construct: made in house; host or cells: E. coli BL21 (DE3)
Excerpt: This assay can be also used to assess a selective inhibition or reduction of signaling output of a mutant Ras protein relative to a wildtype, or relative to a different mutant Ras protein. For example, the equilibrium interaction of wildtype Kras or K-Ras mutant (e.g., wildtype or a mutant thereof) with SOS1 (e.g., hSOS1) can be assessed as a proxy or an indication for a subject compound's ability to bind and inhibit Ras protein. HTRF assay detects from (i) a fluorescence resonance energy transfer (FRET) donor (e.g., antiGST-Europium) that is bound to GST-tagged K-Ras mutant to (ii) a FRET acceptor (e.g., anti-6His-XL665) bound to a His-tagged hSOS1.
The assay buffer can contain˜5 mM HEPES pH 7.4, ˜150 mM NaCl, ˜ 1 mM DTT, 0.05% BSA and 0.0025%(v/v) Igepal. A Ras working solution is prepared in an assay buffer containing typically a suitable amount of the protein construct (e.g., GST-tagged K-Ras mutant) and the FRET donor (e.g., antiGST-Eu(K) from Cisbio, France). A SOS1 working solution is prepared in an assay buffer containing suitable amount of the protein construct (e.g., His-hSOS1) and the FRET acceptor (e.g., anti-6His-XL665 from Cisbio, France). A suitable amount of the protein construct will depend on the range of activity or range of IC50 values being detected or under investigation. For detecting IC50 within a range of 500 nM, the protein constructs of the same range of molarity can be utilized.
A fixed volume of DMSO with or without test compound is transferred into a 384-well plate. Ras working solution is added to all wells of the test plate. SOS1 working solution is added to all wells except for those that are subsequently filled the inhibitor control solution. Upon incubation for about 10 minutes or longer, the fluorescence is measured with a M1000Pro plate reader (Tecan) using HTRF detection (excitation 337 nm, emission 1: 620 nm, emission 2: 665 nm). Compounds are tested in duplicates at different concentrations (for example, 10 μM, 2.5 μM, 0.63 μM, 0.16 μM, 0.04 μM, 0.01 μM test compound). The ratiometric data (i.e., emission 2 divided by emission 1) is used to calculate IC50 values against Ras using GraphPad Prism (GraphPad software). Following this general procedure, samples were tested with or without a subject compound disclosed herein including compounds exemplified in Table 1 to assess their abilities to inhibit a K-Ras mutant relative to another mutant or WT. Signaling output measured in terms of IC50 values can be obtained, a ratio of IC50 against one mutant relative to another mutant can be calculated. For instance, a selective reduction of K-Ras G12D signaling output can be evidenced by a ratio greater than one. In particular, a selective reduction of K-Ras G12D signaling relative to K-Ras WT signaling is evidenced as the ratio of IC50 (against K-Ras WT) to IC50 (against K-Ras G12D) is greater than 1.

K-Ras G12S = target: T2, K-Ras G12S (Homo sapiens, UniProt P01116, G12S); assay: HTRF resonance energy transfer assay, K-Ras G12S / SOS1 interaction; conditions: HTRF assay of Example 5; read-out: IC50 against K-Ras G12S
T2 construct: made in house; host or cells: E. coli BL21 (DE3)
Outline: (§1)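 Buffer about 5 mM HEPES pH 7.4 with ~150 mM NaCl, ~1 mM DTT, 0.05% BSA, 0.0025% (v/v) Igepal. Protein constructs used at molarity matching the IC50 range studied (e.g. ~500 nM). FRET between tagged K-Ras and hSOS1 measured after short incubation.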

K-Ras G12V = target: T3, K-Ras G12V (Homo sapiens, UniProt P01116, G12V); assay: HTRF resonance energy transfer assay, K-Ras G12V / SOS1 interaction; conditions: HTRF assay of Example 5; read-out: IC50 against K-Ras G12V
T3 construct: made in house; host or cells: E. coli BL21 (DE3)
Outline: as §1

K-Ras WT = target: T4, K-Ras WT (Homo sapiens, UniProt P01116); assay: HTRF resonance energy transfer assay, K-Ras WT / SOS1 interaction; conditions: HTRF assay of Example 5; read-out: IC50 against K-Ras WT
T4 construct: made in house; host or cells: E. coli BL21 (DE3)
Outline: as §1

Measured: IC50

T4 sequence (P01116 1-188 isoform P01116-2): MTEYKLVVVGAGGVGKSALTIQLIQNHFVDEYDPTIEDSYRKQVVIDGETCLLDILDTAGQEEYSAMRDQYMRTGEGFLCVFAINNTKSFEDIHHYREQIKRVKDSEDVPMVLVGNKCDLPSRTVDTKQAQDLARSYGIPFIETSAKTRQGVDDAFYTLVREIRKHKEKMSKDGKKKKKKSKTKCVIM
T3 sequence (P01116 1-188 isoform P01116-2 G12V): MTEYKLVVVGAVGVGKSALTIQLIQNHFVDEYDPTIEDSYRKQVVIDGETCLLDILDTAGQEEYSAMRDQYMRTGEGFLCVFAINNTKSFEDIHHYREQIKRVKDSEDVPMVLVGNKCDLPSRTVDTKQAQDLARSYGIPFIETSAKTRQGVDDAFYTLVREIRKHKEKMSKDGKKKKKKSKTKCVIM
T1 sequence (P01116 1-188 isoform P01116-2 G12D): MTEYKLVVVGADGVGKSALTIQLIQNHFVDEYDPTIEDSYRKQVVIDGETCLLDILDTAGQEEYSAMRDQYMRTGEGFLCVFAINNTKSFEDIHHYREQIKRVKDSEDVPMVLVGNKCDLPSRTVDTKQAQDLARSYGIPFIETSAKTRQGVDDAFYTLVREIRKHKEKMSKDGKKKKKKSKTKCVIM
T2 sequence (P01116 1-188 isoform P01116-2 G12S): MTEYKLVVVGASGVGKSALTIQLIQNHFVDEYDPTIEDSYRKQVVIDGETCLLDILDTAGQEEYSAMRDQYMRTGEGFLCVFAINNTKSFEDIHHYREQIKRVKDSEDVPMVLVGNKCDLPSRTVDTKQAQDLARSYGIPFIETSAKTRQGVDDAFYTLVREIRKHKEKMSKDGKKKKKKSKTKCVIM

N#Cc1c(N)sc2c(F)ccc(-c3c(Cl)c4c5c(nc(OC[C@@]67CCCN6C[C@H](F)C7)nc5c3F)N(C3CNC3)CCO4)c12 [Compound 828, 2-amino-4-(4-(azetidin-3-yl)-8-chloro-10-fluoro-2-(((2R,7aS)-2-fluorotetrahydro-1H-pyrrolizin-7a(5H)-yl)methoxy)-5,6-dihydro-4H-[1,4]oxazepino[5,6,7-de]quinazolin-9-yl)-7-fluorobenzo[b]thiophene-3-carbonitrile]
< 0.1 µM: all assays above

N#Cc1c(N)sc2c(F)ccc(-c3c(Cl)c4c5c(nc(OC[C@@]67CCCN6C[C@H](F)C7)nc5c3F)N(CC(F)F)C(CO)CO4)c12 (stereo partly drawn) [Compound 840, 2-amino-4-(8-chloro-4-(2,2-difluoroethyl)-10-fluoro-2-(((2R,7aS)-2-fluorotetrahydro-1H-pyrrolizin-7a(5H)-yl)methoxy)-5-(hydroxymethyl)-5,6-dihydro-4H-[1,4]oxazepino[5,6,7-de]quinazolin-9-yl)-7-fluorobenzo[b]thiophene-3-carbonitrile]
< 0.1 µM: all assays above

C#C[C@H]1COc2c(Cl)c(-c3ccc(F)c4sc(N)c(C#N)c34)c(F)c3nc(OC[C@@]45CCCN4C[C@H](F)C5)nc(c23)N1C1CCOC1 (stereo partly drawn) [Compound 843, 2-amino-4-((5S)-8-chloro-5-ethynyl-10-fluoro-2-(((2R,7aS)-2-fluorotetrahydro-1H-pyrrolizin-7a(5H)-yl)methoxy)-4-(tetrahydrofuran-3-yl)-5,6-dihydro-4H-[1,4]oxazepino[5,6,7-de]quinazolin-9-yl)-7-fluorobenzo[b]thiophene-3-carbonitrile]
< 0.1 µM: all assays above

CC(O)C1COc2c(Cl)c(-c3ccc(F)c4sc(N)c(C#N)c34)c(F)c3nc(OC[C@@]45CCCN4C[C@H](F)C5)nc(c23)N1CC1CNC1 (stereo partly drawn) [Compound 848, 2-amino-4-(4-(azetidin-3-ylmethyl)-8-chloro-10-fluoro-2-(((2R,7aS)-2-fluorotetrahydro-1H-pyrrolizin-7a(5H)-yl)methoxy)-5-(1-hydroxyethyl)-5,6-dihydro-4H-[1,4]oxazepino[5,6,7-de]quinazolin-9-yl)-7-fluorobenzo[b]thiophene-3-carbonitrile]
< 0.1 µM: all assays above

C[C@H](Oc1nc2c3c(c(Cl)c(-c4ccc(F)c5sc(N)c(C#N)c45)c(F)c3n1)OCCN2C1CC2(CNC2)C1)[C@@H]1CCCN1C [Compound 856, 2-amino-4-(8-chloro-10-fluoro-2-((S)-1-((S)-1-methylpyrrolidin-2-yl)ethoxy)-4-(2-azaspiro[3.3]heptan-6-yl)-5,6-dihydro-4H-[1,4]oxazepino[5,6,7-de]quinazolin-9-yl)-7-fluorobenzo[b]thiophene-3-carbonitrile]
< 0.1 µM: all assays above

N#Cc1c(N)sc2c(F)ccc(-c3c(Cl)c4c5c(nc(OC[C@@]67CCCN6C[C@H](F)C7)nc5c3F)N([C@H]3CCNC3)CCO4)c12 [Compound 858, 2-amino-4-(8-chloro-10-fluoro-2-(((2R,7aS)-2-fluorotetrahydro-1H-pyrrolizin-7a(5H)-yl)methoxy)-4-((S)-pyrrolidin-3-yl)-5,6-dihydro-4H-[1,4]oxazepino[5,6,7-de]quinazolin-9-yl)-7-fluorobenzo[b]thiophene-3-carbonitrile]
< 0.1 µM: all assays above

Nc1nc2c(-c3c(Cl)c4c5c(nc(OC[C@@]67CCCN6C[C@H](F)C7)nc5c3F)N(C3CCNCC3)CCO4)ccc(F)c2s1 [Compound 898, 4-(8-chloro-10-fluoro-2-(((2R,7aS)-2-fluorotetrahydro-1H-pyrrolizin-7a(5H)-yl)methoxy)-4-(piperidin-4-yl)-5,6-dihydro-4H-[1,4]oxazepino[5,6,7-de]quinazolin-9-yl)-7-fluorobenzo[d]thiazol-2-amine]
< 0.1 µM: all assays above

CN(CCCN1CCOc2c(Cl)c(-c3ccc(F)c4sc(N)c(C#N)c34)c(F)c3nc(OC[C@@]45CCCN4C[C@H](F)C5)nc1c23)C(=O)[C@H]1CN1 [Compound 908, (2R)-N-(3-(9-(2-amino-3-cyano-7-fluorobenzo[b]thiophen-4-yl)-8-chloro-10-fluoro-2-(((2R,7aS)-2-fluorotetrahydro-1H-pyrrolizin-7a(5H)-yl)methoxy)-5,6-dihydro-4H-[1,4]oxazepino[5,6,7-de]quinazolin-4-yl)propyl)-N-methylaziridine-2-carboxamide]
< 0.1 µM: all assays above

N#Cc1c(N)sc2c(F)ccc(-c3c(Cl)c4c5c(nc(OC[C@@]67CCCN6C[C@H](F)C7)nc5c3F)N(C3CCOC3)C(C3(C#N)CC3)CO4)c12 (stereo partly drawn) [Compound 913, 2-amino-4-(8-chloro-5-(1-cyanocyclopropyl)-10-fluoro-2-(((2R,7aS)-2-fluorotetrahydro-1H-pyrrolizin-7a(5H)-yl)methoxy)-4-(tetrahydrofuran-3-yl)-5,6-dihydro-4H-[1,4]oxazepino[5,6,7-de]quinazolin-9-yl)-7-fluorobenzo[b]thiophene-3-carbonitrile]
< 0.1 µM: all assays above

CNCCCN1c2nc(OC[C@@]34CCCN3C[C@H](F)C4)nc3c(F)c(-c4ccc(F)c5sc(N)c(C#N)c45)c(Cl)c(c23)OCC1CC#N (stereo partly drawn) [Compound 928, 2-amino-4-(8-chloro-5-(cyanomethyl)-10-fluoro-2-(((2R,7aS)-2-fluorotetrahydro-1H-pyrrolizin-7a(5H)-yl)methoxy)-4-(3-(methylamino)propyl)-5,6-dihydro-4H-[1,4]oxazepino[5,6,7-de]quinazolin-9-yl)-7-fluorobenzo[b]thiophene-3-carbonitrile]
< 0.1 µM: all assays above

N#Cc1c(N)sc2c(F)ccc(-c3c(Cl)c4c5c(nc(OC[C@@]67CCCN6C[C@H](F)C7)nc5c3F)N(C3CCCCN(C(=O)C5CN5)C3)CCO4)c12 (stereo partly drawn) [Compound 934, 2-amino-4-(4-(1-(aziridine-2-carbonyl)azepan-3-yl)-8-chloro-10-fluoro-2-(((2R,7aS)-2-fluorotetrahydro-1H-pyrrolizin-7a(5H)-yl)methoxy)-5,6-dihydro-4H-[1,4]oxazepino[5,6,7-de]quinazolin-9-yl)-7-fluorobenzo[b]thiophene-3-carbonitrile]
< 0.1 µM: all assays above
